Assays:
Format in all cases: physicochemical
[1] = pKa measurement by capillary electrophoresis method (CE method); conditions: 25° C., pH 2.5 to 11.5 buffer
Description: (Measuring Method by Capillary Electrophoresis Method, CE Method)
It is a method by using Capillary Zone Electrophoresis technique and a method of separation by using free electrophoresis of each sample component in a buffer including electrolyte.
After injecting a compound solution to fused silica capillary filling a buffer adjusting the pH 2.5 to 11.5, high voltage (Inlet side +, Outlet side −) is on capillary, and then a compound moves at a speed reflecting an ionized state at the pH of the buffer (a compound having (+) charge moves quickly, and a compound having (−) charged moves slowly). pKas was calculated by plotting the difference between the migration time of the compound and that of a neutral molecule (DMSO) against pH, and fitting. […]

[2] = Solubility of the compound (IA) in water
[3] = Solubility of sodium salt in various aqueous media
Procedure: To anisole (1.54 L) cooling in dry ice-ethanol bath was added aluminium chloride (495.4 g, 3.71 mol) followed by dichloromethane. 610 g of the crude product containing the compound 8 obtained by Step 1 was dissolved in a mixed solution of dichloromethane (0.51 L) and anisole (1.03 L) and spent 1 hour adding dropwise to the above aluminium chloride solution re-cooling to −40° C. The container used for the dropwise was washed with a mixed solution of dichloromethane (0.36 L) and anisole (0.51 L) and the wash fluid was added to the reaction solution. The reaction solution was stirred at −20° C. for 2 hours, and added to a mixed solution of ethanol (7.1 L), 1 mol/L hydrochloric acid (7.1 L) while stirring under cooling in ice-bath. The mixed solution was stirred for 30 minutes under ice-cooling, dichloromethane (5.14 L) and saturated brine (257 mL) was added, the separated aqueous layer was washed with dichloromethane (5.14 L). The organic layer was extracted with a mixture of water (2.57 L) and saturated brine (100 mL), and the separated aqueous layer was combined with the previous aqueous layer. The aqueous layer was stirred under cooling in ice-bath, and 2 mol/L sodium hydroxide aqueous solution was added to adjust pH to 1.5 and the solution was left to stand. The aqueous layer was concentrated and purified by HP20SS column (eluent: 13% acetonitrile water). Sodium bicarbonate (8.75 g) was added to the collected fractions containing the target product and the resulting solution was concentrated under reduced pressure until 500 mL. The solution was diluted by adding water (1.6 L) and filtered with cotton plug, and then the filtrate was lyophilized to yield the compound 9 (77.8 g). • Elemental analysis: (calculated as C30H33ClN7O10S2Na 4.5H2O) • Calculated: C; 42.13, H; 4.95, N; 11.46, S; 7.50, Cl; 4.14, Na; 2.69(%) • Measured: C; 42.22, H; 4.88, N; 11.24, S; 7.01, Cl; 4.04, Na; 2.74(%) The solubility of the obtained compound 9 in various aqueous medium (water for injection, saline, dextrose solution) was all 100 mg/mL or more, and they are very high solubility.

[4] = Solid stability test of crystalline solid; conditions: −20±5° C. or 5±5° C., light shielding, double polyethylene bag in metal can, 0, 3, 6, 9, 12 months
Procedure: The type I crystal D about 1 g was put in a polyethylene bag and tightened with a convex. This bag was further put in a polyethylene bag and tightened with a convex in the same way. The above sample of the same storage conditions was put together in a metal can as a stability evaluation sample. The storage conditions, storage period and test items are as follows.
• Temperature: −20±5° C. or 5±5° C. • Light shielding • Package form: double polyethylene bag, convex, metal can • Storage period: 0, 3, 6, 9, 12 months (Measurement)
Using the type I crystal D stored at the above storage conditions and storage period, after viewing the change in appearance, the contents of the compound (IA) and the related substances were measured by the following method.
Step 1: Preparation of a Sample Solution
About 40 mg of the sample was weighed precisely, and dissolved in a sample dilution solvent to be exactly 25 mL. • 5 mmol/L phosphate buffer/liquid chromatography acetonitrile mixture (9:1) was used as the above sample dilution solvent was used. Herein, water: 0.05 mol/L sodium dihydrogen phosphate test solution: 0.05 mol/L disodium hydrogen phosphate reagent mixture=18:1:1 (pH is about 7.1) was used as a phosphate buffer. Step 2: HPLC Measurement of Related Substances
The above sample solution was measured by liquid chromatography under the following test condition to measure peak areas of the compound (IA) and its related substances by the automatic integration method.
• Column: YMC-UltraHT Pro C18, φ2.0×100 mm, 2 μm, YMC • Column temperature: 35° C. • UV detection wavelength: 261 nm • Mobile phase: [A] […]
• Flow rate: 0.5 mL per minute (a retention time of the compound (IA) about 5 minutes) The amount of related substances in the sample was determined by using the following formula. […]
The above standard solution and sample solution was measured by liquid chromatography under the following test condition to determine a peak area of the compound (IA) by an automatic integration method. […]
The content of related substances in the sample was determined using the following formula. […]

[5] = Dynamic vapor sorption measurement; conditions: 25° C.
Procedure: Dynamic vapor sorption (DVS) is a gravimetric technique that measures how quickly and how much of water is absorbed and desorbed by a sample in several relative humidity (RH). A degree of water absorption is calculated by weight change in controlled humidity increased from 0% RH to 95% RH stepped 5% or 10%. Similarly, a degree of water desorption is calculated in humidity decreased from 95% RH to 0% RH. An absorption-desorption isotherm is obtained by plotting a value of weight change in each humidity. […] When the anhydrate crystal transforms to hydrate crystal by humidity, the results of measurement indicate transformation humidity and amount of crystal water. The dynamic vapor sorption measurement of the crystalline solid obtained in each example was carried out. The sample of about 18.0 mg was measured and transferred to a sample pan, and it was measured. The measurement condition is shown below. • Device: DVS Advantage made by Surface Measurement Systems LTD. • Measurement point: each 5% from RH95% to RH0%. • Temperature: 25° C. (Method of Measuring the Karl Fischer Method) The results of a dynamic vapor sorption measurement of the type I crystal D obtained in Example 6-1 were shown in FIG. 7 and Table 7. Dynamic vapor sorption measurement can be occurred errors within the range of ±0.5%. An increased amount of water (%) represents an increased amount of the type I crystal at 0% RH.

## CC(C)(O/N=C(\C(=O)N[C@@H]1C(=O)N2C(C(=O)[O-])=C(C[N+]3(CCNC(=O)c4ccc(O)c(O)c4Cl)CCCC3)CS[C@H]12)c1csc(N)n1)C(=O)O (stereo in doubt) [compound (IA)]
[1]
  pKa1: 4.2
  pKa2: 7.2
[2]
  solubility in water: very low

## CC(C)(O/N=C(\C(=O)N[C@@H]1C(=O)N2C(C(=O)[O-])=C(C[N+]3(CCNC(=O)c4ccc(O)c(O)c4Cl)CCCC3)CS[C@H]12)c1csc(N)n1)C(=O)O [compound 9]
[3]; dextrose solution, saline or isotonic
  solubility: ≥ 100 mg/mL
[3]; saline, saline or isotonic
  solubility: ≥ 100 mg/mL
[3]; water for injection, water
  solubility: ≥ 100 mg/mL

## CC(C)(O/N=C(\C(=O)N[C@@H]1C(=O)N2C(C(=O)[O-])=C(C[N+]3(CCNC(=O)c4ccc(O)c(O)c4Cl)CCCC3)CS[C@H]12)c1csc(N)n1)C(=O)O [type I crystal D]
[4]
  change in appearance on storage: no change in the appearance
  increase of content of related substances on storage (HPLC): not observed
  solid storage stability (overall): very stable
[5]; Relative humidity 0% RH, relative to type I crystal at 0% RH
  Increased amount of water (%): 0.00%
[5]; Relative humidity 5% RH, relative to 0% RH
  Increased amount of water (%): 3.33%
[5]; Relative humidity 10% RH, relative to 0% RH
  Increased amount of water (%): 5.26%
[5]; Relative humidity 15% RH, relative to 0% RH
  Increased amount of water (%): 7.70%
[5]; Relative humidity 20% RH, relative to 0% RH
  Increased amount of water (%): 10.53%
[5]; Relative humidity 25% RH, relative to 0% RH
  Increased amount of water (%): 11.67%
[5]; Relative humidity 30% RH, relative to 0% RH
  Increased amount of water (%): 12.28%
[5]; Relative humidity 35% RH, relative to 0% RH
  Increased amount of water (%): 12.75%
[5]; Relative humidity 40% RH, relative to 0% RH
  Increased amount of water (%): 13.16%
[5]; Relative humidity 45% RH, relative to 0% RH
  Increased amount of water (%): 13.54%
[5]; Relative humidity 50% RH, relative to 0% RH
  Increased amount of water (%): 13.91%
[5]; Relative humidity 55% RH, relative to 0% RH
  Increased amount of water (%): 14.25%
[5]; Relative humidity 60% RH, relative to 0% RH
  Increased amount of water (%): 14.55%
[5]; Relative humidity 65% RH, relative to 0% RH
  Increased amount of water (%): 14.93%
[5]; Relative humidity 70% RH, relative to 0% RH
  Increased amount of water (%): 15.26%
[5]; Relative humidity 75% RH, relative to 0% RH
  Increased amount of water (%): 15.55%
[5]; Relative humidity 80% RH, relative to 0% RH
  Increased amount of water (%): 15.82%
[5]; Relative humidity 85% RH, relative to 0% RH
  Increased amount of water (%): 16.08%
[5]; Relative humidity 90% RH, relative to 0% RH
  Increased amount of water (%): 16.34%
[5]; Relative humidity 95% RH, relative to 0% RH
  Increased amount of water (%): 16.60%

— patent US10004750B2, “Salt of cephalosporin derivative, its crystalline solid and a method of manufacturing thereof” (Shionogi & Co., Ltd., priority 2014, dated 2018)
